ChEMBL document CHEMBL4024740, “Isocostunolide inhibited glioma stem cell by suppression proliferation and inducing caspase dependent apoptosis” (Bioorg Med Chem Lett, 2017)
≈ marks a conversion by molar mass, not a printed value. Calls of active or inactive are those of the source. The rule behind the calls is not given here.

Columns and labels:
[1] = Induction of apoptosis in human GSC18 cells assessed as viable cells at 1 ug/ml after 8 hrs by Annexin V-FITC/propidium iodide staining based flow cytometric method (reference value: 85.5%); format: functional; details: GSC18, 8 h, read-out: Activity
[2] = Induction of apoptosis in human GSC3 cells assessed as early apoptotic cells at 1 ug/ml after 8 hrs by Annexin V-FITC/propidium iodide staining based flow cytometric method (reference value: 0.186%); format: functional
GSC18 [3] = assay: Inhibition of colony formation in human GSC18 cells assessed as reduction in numbers of clonal sphere at 5 ug/ml after 10 days by crystal violet staining based assay; format: functional, cell-based
[4] = Induction of apoptosis in human GSC3 cells assessed as late apoptotic cells at 5 ug/ml after 8 hrs by Annexin V-FITC/propidium iodide staining based flow cytometric method (reference value: 0.373%); format: functional
GSC3 [5] = assay: Cytotoxicity against human GSC3 cells assessed as cell shrinkage at 5 ug/ml measured after 8 hrs; format: functional, cell-based
GSC3 [6] = assay: Cytotoxicity against human GSC3 cells assessed as cell detachment at 5 ug/ml measured after 8 hrs; format: functional, cell-based
[7] = Induction of apoptosis in human GSC18 cells assessed as early apoptotic cells at 2 ug/ml after 8 hrs by Annexin V-FITC/propidium iodide staining based flow cytometric method (reference value: 7.73%); format: functional
[8] = Induction of apoptosis in human GSC3 cells assessed as early apoptotic cells at 5 ug/ml after 8 hrs by Annexin V-FITC/propidium iodide staining based flow cytometric method (reference value: 0.186%); format: functional
GSC18 [9] = assay: Inhibition of colony formation in human GSC18 cells assessed as clonal sphere damage at 5 ug/ml after 10 days by crystal violet staining based assay; format: functional, cell-based
HEK-293T = assay: Cytotoxicity against human 293T cells after 72 hrs by MTS assay; format: cell-based
[10] = Cytotoxicity against human GSC18 cells after 72 hrs by MTS assay; format: functional, cell-based; details: GSC18, 72 h
GSC18 [11] = assay: Induction of apoptosis in human GSC18 cells assessed as increase in cleaved caspase-3 at 5 ug/ml after 8 hrs by DAPI staining based immunofluorescence assay; format: functional, cell-based
[12] = Induction of apoptosis in human GSC18 cells assessed as early apoptotic cells at 5 ug/ml after 8 hrs by Annexin V-FITC/propidium iodide staining based flow cytometric method (reference value: 7.73%); format: functional
[13] = Induction of apoptosis in human GSC3 cells assessed as late apoptotic cells at 2 ug/ml after 8 hrs by Annexin V-FITC/propidium iodide staining based flow cytometric method (reference value: 0.603%); format: functional
[14] = Induction of apoptosis in human GSC18 cells assessed as late apoptotic cells at 1 ug/ml after 8 hrs by Annexin V-FITC/propidium iodide staining based flow cytometric method (reference value: 2.54%); format: functional
[15] = Induction of apoptosis in human GSC18 cells assessed as viable cells at 2 ug/ml after 8 hrs by Annexin V-FITC/propidium iodide staining based flow cytometric method (reference value: 85.5%); format: functional; details: GSC18, 8 h, read-out: Activity
GSC12 = assay: Growth inhibition of human GSC12 cells at 10 ug/ml; format: functional, cell-based
[16] = Induction of apoptosis in human GSC3 cells assessed as late apoptotic cells at 5 ug/ml after 8 hrs by Annexin V-FITC/propidium iodide staining based flow cytometric method (reference value: 0.603%); format: functional
GSC18 [17] = assay: Growth inhibition of human GSC18 cells at 10 ug/ml; format: functional, cell-based
[18] = Induction of apoptosis in human GSC18 cells assessed as early apoptotic cells at 1 ug/ml after 8 hrs by Annexin V-FITC/propidium iodide staining based flow cytometric method (reference value: 7.73%); format: functional
[19] = Induction of apoptosis in human GSC3 cells assessed as late apoptotic cells at 1 ug/ml after 8 hrs by Annexin V-FITC/propidium iodide staining based flow cytometric method (reference value: 0.603%); format: functional
[20] = Induction of apoptosis in human GSC18 cells assessed as late apoptotic cells at 5 ug/ml after 8 hrs by Annexin V-FITC/propidium iodide staining based flow cytometric method (reference value: 4.25%); format: functional
GSC3 [21] = assay: Inhibition of colony formation in human GSC3 cells assessed as clonal sphere damage at 5 ug/ml after 10 days by crystal violet staining based assay; format: functional, cell-based
GSC18 [22] = assay: Cytotoxicity against human GSC18 cells assessed as cell detachment at 5 ug/ml measured after 8 hrs; format: functional, cell-based
GSC18 [23] = assay: Cytotoxicity against human GSC18 cells assessed as cell shrinkage at 5 ug/ml measured after 8 hrs; format: functional, cell-based
GSC3 [24] = assay: Growth inhibition of human GSC3 cells at 10 ug/ml; format: functional, cell-based
[25] = Induction of apoptosis in human GSC18 cells assessed as late apoptotic cells at 2 ug/ml after 8 hrs by Annexin V-FITC/propidium iodide staining based flow cytometric method (reference value: 2.54%); format: functional
GSC3 [26] = assay: Inhibition of colony formation in human GSC3 cells assessed as reduction in numbers of clonal sphere at 5 ug/ml after 10 days by crystal violet staining based assay; format: functional, cell-based
[27] = Induction of apoptosis in human GSC18 cells assessed as late apoptotic cells at 1 ug/ml after 8 hrs by Annexin V-FITC/propidium iodide staining based flow cytometric method (reference value: 4.25%); format: functional
[28] = Induction of apoptosis in human GSC3 cells assessed as late apoptotic cells at 1 ug/ml after 8 hrs by Annexin V-FITC/propidium iodide staining based flow cytometric method (reference value: 0.373%); format: functional
GSC3 [29] = assay: Cytotoxicity against human GSC3 cells assessed as cell rounding at 5 ug/ml measured after 8 hrs; format: functional, cell-based
[30] = Induction of apoptosis in human GSC3 cells assessed as early apoptotic cells at 2 ug/ml after 8 hrs by Annexin V-FITC/propidium iodide staining based flow cytometric method (reference value: 0.186%); format: functional
[31] = Cytotoxicity against human GSC3 cells after 72 hrs by MTS assay; format: functional, cell-based; details: GSC-3, 72 h
[32] = Induction of apoptosis in human GSC18 cells assessed as late apoptotic cells at 5 ug/ml after 8 hrs by Annexin V-FITC/propidium iodide staining based flow cytometric method (reference value: 2.54%); format: functional
GSC3 [33] = assay: Induction of apoptosis in human GSC3 cells assessed as increase in cleaved caspase-3 at 5 ug/ml after 8 hrs by DAPI staining based immunofluorescence assay; format: functional, cell-based
[34] = Induction of apoptosis in human GSC3 cells assessed as late apoptotic cells at 2 ug/ml after 8 hrs by Annexin V-FITC/propidium iodide staining based flow cytometric method (reference value: 0.373%); format: functional
GSC18 [35] = assay: Cytotoxicity against human GSC18 cells assessed as suppression of DNA synthesis at 5 ug/ml after 8 hrs by BrdU/DAPI staining based immunofluorescence assay; format: functional, cell-based
[36] = Induction of apoptosis in human GSC18 cells assessed as late apoptotic cells at 2 ug/ml after 8 hrs by Annexin V-FITC/propidium iodide staining based flow cytometric method (reference value: 4.25%); format: functional
GSC3 [37] = assay: Cytotoxicity against human GSC3 cells assessed as suppression of DNA synthesis at 5 ug/ml after 8 hrs by BrdU/DAPI staining based immunofluorescence assay; format: functional, cell-based
[38] = Induction of apoptosis in human GSC3 cells assessed as viable cells at 1 ug/ml after 8 hrs by Annexin V-FITC/propidium iodide staining based flow cytometric method (reference value: 98.8%); format: functional; details: GSC-3, 8 h, read-out: Activity
[39] = Cytotoxicity against human HAC cells after 72 hrs by MTS assay; format: cell-based
[40] = Induction of apoptosis in human GSC3 cells assessed as viable cells at 5 ug/ml after 8 hrs by Annexin V-FITC/propidium iodide staining based flow cytometric method (reference value: 98.8%); format: functional; details: GSC-3, 8 h, read-out: Activity
[41] = Cytotoxicity against human GSC12 cells after 72 hrs by MTS assay; format: functional, cell-based; details: GSC12, 72 h
[42] = Induction of apoptosis in human GSC18 cells assessed as viable cells at 5 ug/ml after 8 hrs by Annexin V-FITC/propidium iodide staining based flow cytometric method (reference value: 85.5%); format: functional; details: GSC18, 8 h, read-out: Activity
GSC18 [43] = assay: Cytotoxicity against human GSC18 cells assessed as cell rounding at 5 ug/ml measured after 8 hrs; format: functional, cell-based
[44] = Induction of apoptosis in human GSC3 cells assessed as viable cells at 2 ug/ml after 8 hrs by Annexin V-FITC/propidium iodide staining based flow cytometric method (reference value: 98.8%); format: functional; details: GSC-3, 8 h, read-out: Activity

With C=C1C(=O)O[C@@H]2/C=C(\C)CCC/C(C)=C/C[C@@H]12 the viability at 1 µg/mL [1] was 51.2%, the Activity [2] was 0.096% and the inhibition (GSC18 [3]) was “Active”. For the same molecule, the Activity [4] was 22.4%, the Activity (GSC3 [5]) was “Active” and the Activity (GSC3 [6]) was “Active”. For the same molecule, the Activity [7] was 3.28%, the Activity [8] was 3.98% and the inhibition (GSC18 [9]) was “Active”. The IC50 (HEK-293T) was 7.61 µg/mL (≈ 32.8 µM), the IC50 [10] was 1.07 µg/mL (≈ 4.61 µM) and the Activity (GSC18 [11]) was “Active”. For the same molecule, the Activity [12] was 4.1%, the Activity [13] was 3.53% and the Activity [14] was 30%. The viability at 2 µg/mL [15] was 57.5%, the “growth inhibition (GI)” value (GSC12) was “Active” and the Activity [16] was 54.3%. The “growth inhibition (GI)” value (GSC18 [17]) was “Active”, the Activity [18] was 1.54% and the Activity [19] was 0.942%. For the same molecule, the Activity [20] was 21.1%, the inhibition (GSC3 [21]) was “Active” and the Activity (GSC18 [22]) was “Active”. For the same molecule, the Activity (GSC18 [23]) was “Active”, the “growth inhibition (GI)” value (GSC3 [24]) was “Active” and the Activity [25] was 17.1%. The inhibition (GSC3 [26]) was “Active”, the Activity [27] was 17.3% and the Activity [28] was 4.3%. The Activity (GSC3 [29]) was “Active”, the Activity [30] was 1.06% and the IC50 [31] was 2.8 µg/mL (≈ 12.1 µM). For the same molecule, the Activity [32] was 35.2%, the Activity (GSC3 [33]) was “Active” and the Activity [34] was 4%. The Activity (GSC18 [35]) was “Active”, the Activity [36] was 22.1% and the Activity (GSC3 [37]) was “Active”. It also gave a viability at 1 µg/mL [38] of 94.7%, an IC50 [39] of 7.42 µg/mL (≈ 31.9 µM) and a viability at 5 µg/mL [40] of 19.2%. The IC50 [41] was 2.61 µg/mL (≈ 11.2 µM), the viability at 5 µg/mL [42] was 39.6% and the Activity (GSC18 [43]) was “Active”. For the same molecule, the viability at 2 µg/mL [44] was 91.4%.
